Results taken from the supplement of paper PMC10307832.

Columns and labels:
Assay in all cases: relative viability (nuclei count vs DMSO), 5 days (fraction); higher = more cells survive
Seliciclib + Luminespib = compound: CC[C@H](CO)Nc1nc(NCc2ccccc2)c2ncn(C(C)C)c2n1 [Seliciclib] + CCNC(=O)c1noc(-c2cc(C(C)C)c(O)cc2O)c1-c1ccc(CN2CCOCC2)cc1 [Luminespib] (partner 0.01 µM)
In short: (§1)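 Cells from lung cancer lines were seeded into 1536-well plates and, one day later, dosed by pin tool. Treatments were either a single drug or a fixed dose of an anchor drug with five library-drug doses (not always all listed) in √10 steps. After 5 days, nuclei were stained in a one-step fixation (final 0.05% Triton X-100, 1% formaldehyde, 1 ug/ml Hoechst) and counted on 4× images, and relative viability is the treated-to-vehicle nuclei ratio, as the median of duplicate plates.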

Seliciclib + Tozasertib = compound: CC[C@H](CO)Nc1nc(NCc2ccccc2)c2ncn(C(C)C)c2n1 [Seliciclib] + Cc1cc(Nc2cc(N3CCN(C)CC3)nc(Sc3ccc(NC(=O)C4CC4)cc3)n2)n[nH]1 [Tozasertib] (partner 0.1 µM)
In short: as §1

Seliciclib + Alpelisib = compound: CC[C@H](CO)Nc1nc(NCc2ccccc2)c2ncn(C(C)C)c2n1 [Seliciclib] + Cc1nc(NC(=O)N2CCC[C@H]2C(N)=O)sc1-c1ccnc(C(C)(C)C(F)(F)F)c1 [Alpelisib] (partner 2 µM)
In short: as §1

Seliciclib + Dasatinib = compound: CC[C@H](CO)Nc1nc(NCc2ccccc2)c2ncn(C(C)C)c2n1 [Seliciclib] + Cc1nc(Nc2ncc(C(=O)Nc3c(C)cccc3Cl)s2)cc(N2CCN(CCO)CC2)n1 [Dasatinib] (partner 0.075 µM)
In short: as §1

Row | Cell Line | relative viability (Seliciclib + Luminespib; first compound 0.08 µM) | relative viability (Seliciclib + Luminespib; first compound 0.253 µM) | relative viability (Seliciclib + Luminespib; first compound 0.8 µM) | relative viability (Seliciclib + Luminespib; first compound 2.53 µM) | relative viability (Seliciclib + Luminespib; first compound 8 µM) | relative viability (Seliciclib + Tozasertib; first compound 0.08 µM) | relative viability (Seliciclib + Tozasertib; first compound 0.253 µM) | relative viability (Seliciclib + Tozasertib; first compound 0.8 µM) | relative viability (Seliciclib + Tozasertib; first compound 2.53 µM) | relative viability (Seliciclib + Tozasertib; first compound 8 µM) | relative viability (Seliciclib + Alpelisib; first compound 0.08 µM) | relative viability (Seliciclib + Alpelisib; first compound 0.253 µM) | relative viability (Seliciclib + Alpelisib; first compound 0.8 µM) | relative viability (Seliciclib + Alpelisib; first compound 2.53 µM) | relative viability (Seliciclib + Alpelisib; first compound 8 µM) | relative viability (Seliciclib + Dasatinib; first compound 0.08 µM) | relative viability (Seliciclib + Dasatinib; first compound 0.253 µM) | relative viability (Seliciclib + Dasatinib; first compound 0.8 µM) | relative viability (Seliciclib + Dasatinib; first compound 2.53 µM) | relative viability (Seliciclib + Dasatinib; first compound 8 µM)
1 | RERF-LC-KJ | 1.29 | 1.07 | 1.21 | 1.28 | 0.859 | 0.455 | 0.537 | 0.441 | 0.493 | 0.457 | 0.745 | 0.761 | 0.814 | 0.973 | 0.792 | 0.908 | 0.841 | 0.902 | 0.627 | 0.617
2 | SK-LU-1 | 0.204 | 0.209 | 0.207 | 0.187 | 0.21 | 0.33 | 0.383 | 0.354 | 0.314 | 0.326 | 1 | 1.05 | 1.04 | 0.795 | 0.636 | 0.173 | 0.184 | 0.183 | 0.142 | 0.141
3 | SK-MES-1 | 0.814 | 0.854 | 0.733 | 1.1 | 0.601 | 0.907 | 0.939 | 0.807 | 0.881 | 0.674 | 0.811 | 0.85 | 0.846 | 0.873 | 0.948 | 0.395 | 0.504 | 0.386 | 0.231 | 0.344
4 | SW 1573 | 0.727 | 0.431 | 0.219 | 0.197 | 0.243 | 0.248 | 0.162 | 0.195 | 0.136 | 0.175 | 0.653 | 0.805 | 0.786 | 0.712 | 0.567 | 0.608 | 0.525 | 0.524 | 0.35 | 0.301
5 | UMC-11 | 0.963 | 0.78 | 1.09 | 1.06 | 0.829 | 0.202 | 0.202 | 0.214 | 0.194 | 0.202 | 0.856 | 0.896 | 0.995 | 1.24 | 0.823 | 0.517 | 0.52 | 0.491 | 0.507 | 0.458
